Among the data in US20260242353A1, “HETEROARYL DERIVATIVES AS DDRs INHIBITORS” (CHIESI FARMACEUTICI S.P.A., priority 2022, published 2026) are Ki values, retold here.

One assay deals with T1, DDR1 (Homo sapiens, UniProt Q08345).
T1 construct: purchased Carna Biosciences
Put plainly: LanthaScreen Europium Kinase Binding assay, DDR1. Put shortly: (§1)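 Compounds were incubated 1 h at rt with 5 nM DDR1 plus 20 nM Kinase Tracer 178, or 5 nM DDR2 plus 10 nM tracer, and 2 nM Eu anti-GST antibody in HEPES pH 7.5 buffer. Read-out was the TR-FRET 665/615 nm ratio. IC50 came from a 4-parameter fit and was converted to Ki by Cheng-Prusoff.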
In general terms: TR-FRET usually uses a lanthanide donor and a delayed reading to cut background.

The next assay has as its target T2, DDR2 (Homo sapiens, UniProt Q16832).
T2 construct: purchased Life Technologies
T2 sequence (Q16832 22-855): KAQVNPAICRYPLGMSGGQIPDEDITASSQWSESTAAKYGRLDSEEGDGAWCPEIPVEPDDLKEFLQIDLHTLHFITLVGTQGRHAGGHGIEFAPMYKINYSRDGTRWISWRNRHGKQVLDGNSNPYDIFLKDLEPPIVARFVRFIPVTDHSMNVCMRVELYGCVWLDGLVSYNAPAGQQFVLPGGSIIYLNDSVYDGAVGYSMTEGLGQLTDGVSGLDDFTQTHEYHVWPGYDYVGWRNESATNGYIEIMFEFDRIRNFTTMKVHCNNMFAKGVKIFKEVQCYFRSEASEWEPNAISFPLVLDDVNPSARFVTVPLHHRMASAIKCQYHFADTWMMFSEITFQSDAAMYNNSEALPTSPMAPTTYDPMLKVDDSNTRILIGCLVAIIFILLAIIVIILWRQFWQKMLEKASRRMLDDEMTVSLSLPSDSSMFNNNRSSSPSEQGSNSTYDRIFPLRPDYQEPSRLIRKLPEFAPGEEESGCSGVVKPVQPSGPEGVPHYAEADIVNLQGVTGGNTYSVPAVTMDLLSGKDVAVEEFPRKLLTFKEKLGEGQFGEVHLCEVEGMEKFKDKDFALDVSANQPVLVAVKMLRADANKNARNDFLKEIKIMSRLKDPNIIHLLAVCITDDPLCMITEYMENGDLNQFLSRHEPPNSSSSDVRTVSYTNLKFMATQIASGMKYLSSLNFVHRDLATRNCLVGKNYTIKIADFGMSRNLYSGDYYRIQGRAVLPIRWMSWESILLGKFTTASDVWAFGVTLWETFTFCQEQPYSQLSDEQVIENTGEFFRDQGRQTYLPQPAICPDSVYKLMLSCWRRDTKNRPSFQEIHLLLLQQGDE
The experiment in a line: LanthaScreen Europium Kinase Binding assay, DDR2. Put shortly:
as §1

Where [1] appears, read: 5 nM DDR1, 20 nM Kinase Tracer 178, 1 h at rt, Ki from IC50 by Cheng-Prusoff, read-out: Ki DDR1.
[2] abbreviates: 5 nM DDR2, 10 nM Kinase Tracer 178, 1 h at rt, Ki from IC50 by Cheng-Prusoff, read-out: Ki DDR2.
Where [3] appears, read: same binding assay, 5 nM DDR1, 20 nM Kinase Tracer 178, read-out: DDR1 Ki.
The mark [4] stands for this setting: same binding assay, 5 nM DDR2, 10 nM Kinase Tracer 178, read-out: DDR2 Ki.

Like-named read-outs stand apart in the source and are kept apart here.

T1 sequence (Q08345 19-913): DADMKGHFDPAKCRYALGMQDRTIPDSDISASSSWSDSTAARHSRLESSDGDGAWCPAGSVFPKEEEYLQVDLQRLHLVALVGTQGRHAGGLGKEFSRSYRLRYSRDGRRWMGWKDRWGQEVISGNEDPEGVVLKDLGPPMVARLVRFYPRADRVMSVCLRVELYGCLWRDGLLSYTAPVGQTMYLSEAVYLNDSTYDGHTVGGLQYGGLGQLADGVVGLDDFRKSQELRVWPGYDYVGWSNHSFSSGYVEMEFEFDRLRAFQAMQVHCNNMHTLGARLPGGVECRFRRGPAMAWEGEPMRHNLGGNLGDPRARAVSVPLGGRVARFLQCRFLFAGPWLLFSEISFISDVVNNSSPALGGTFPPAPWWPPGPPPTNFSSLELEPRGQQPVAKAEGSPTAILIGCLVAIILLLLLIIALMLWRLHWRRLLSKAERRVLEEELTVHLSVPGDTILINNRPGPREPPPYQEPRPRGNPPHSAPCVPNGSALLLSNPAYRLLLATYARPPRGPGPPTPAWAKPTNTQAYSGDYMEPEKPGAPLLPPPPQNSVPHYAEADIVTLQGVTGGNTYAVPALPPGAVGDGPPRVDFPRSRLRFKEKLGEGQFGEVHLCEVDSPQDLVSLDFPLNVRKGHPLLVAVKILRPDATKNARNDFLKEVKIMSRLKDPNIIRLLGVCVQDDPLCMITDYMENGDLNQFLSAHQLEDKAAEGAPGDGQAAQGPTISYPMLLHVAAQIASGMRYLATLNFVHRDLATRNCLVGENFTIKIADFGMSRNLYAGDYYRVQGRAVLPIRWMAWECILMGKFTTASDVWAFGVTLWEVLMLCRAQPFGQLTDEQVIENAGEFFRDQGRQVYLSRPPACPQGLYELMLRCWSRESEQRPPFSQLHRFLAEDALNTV

By Ki is commonly meant the equilibrium dissociation constant of an inhibitor or competing ligand from its target. As to `Cc1ccc(C(=O)Nc2cncc(C(F)(F)F)c2)cc1[C@@H]1CCN(c2cnc3ccc(N4CCN(C)CC4)nn23)C1` [Example 80, (S)-4-methyl-3-(1-(6-(4-methylpiperazin-1-yl)imidazo[1,2-b]pyridazin-3-yl)pyrrolidin-3-yl)-N-(5-(trifluoromethyl)pyridin-3-yl)benzamide], the Ki on DDR1 (setting [1]) and at DDR2 (setting [2]) was 5 to 25 nM each time.

Consider `Cc1ccc(C(=O)Nc2cncc(C(F)(F)F)c2)cc1[C@@H]1CCN(CC(N)=O)C1` [Example C2, (S)-3-(1-(2-amino-2-oxoethyl)pyrrolidin-3-yl)-4-methyl-N-(5-(trifluoromethyl)pyridin-3-yl)benzamide], for which the inhibitory constant (Ki) was 487 nM at DDR1 (setting [3]) and 588 nM at DDR2 (setting [4]).

Take `COc1ccncc1N1CC[C@@H](c2cc(C(=O)Nc3cncc(C(F)(F)F)c3)ccc2C)C1` [Example 76, (S)-3-(1-(4-methoxypyridin-3-yl)pyrrolidin-3-yl)-4-methyl-N-(5-(trifluoromethyl)pyridin-3-yl)benzamide]: the Ki at DDR1 (setting [1]) and at DDR2 (setting [2]) was < 5 nM throughout.

On to `Cc1ccc(C(=O)Nc2cc(C(C)(C)C)n(C)n2)cc1[C@@H]1CCN(c2ncnc3ccsc23)C1` [Example 131, (S)-N-(5-(tert-butyl)-1-methyl-1H-pyrazol-3-yl)-4-methyl-3-(1-(thieno[3,2-d]pyrimidin-4-yl)pyrrolidin-3-yl)benzamide], for which the Ki at DDR1 (setting [1]) and at DDR2 (setting [2]) was < 5 nM in each case.

For the compound `Cc1ccc(C(=O)Nc2cc(C3CC3)nn2C)cc1[C@@H]1CCN(c2cncc(-c3cnn(C)c3)c2)C1` [Example 59, (S)-N-(3-cyclopropyl-1-methyl-1H-pyrazol-5-yl)-4-methyl-3-(1-(5-(1-methyl-1H-pyrazol-4-yl)pyridin-3-yl)pyrrolidin-3-yl)benzamide], the inhibition constant Ki was < 5 nM at DDR1 (setting [1]) and 5 to 25 nM on DDR2 (setting [2]).

Regarding `Cc1ccc(C(=O)Nc2cc(OC(F)F)ccn2)cc1[C@@H]1CCN(c2cncc(C(N)=O)n2)C1` [Example 51, (S)-6-(3-(5-((4-(difluoromethoxy)pyridin-2-yl)carbamoyl)-2-methylphenyl)pyrrolidin-1-yl)pyrazine-2-carboxamide], the inhibition constant Ki at DDR1 (setting [1]) and on DDR2 (setting [2]) was < 5 nM throughout.

For `Cc1ccc(C(=O)Nc2cncc(C(F)(F)F)c2)cc1[C@@H]1CCN(c2cnn3cccnc23)C1` [Example 35, (S)-4-methyl-3-(1-(pyrazolo[1,5-a]pyrimidin-3-yl)pyrrolidin-3-yl)-N-(5-(trifluoromethyl)pyridin-3-yl)benzamide], the Ki at DDR1 (setting [1]) and at DDR2 (setting [2]) was < 5 nM in each case.

`Cc1ccc(C(=O)Nc2cncc(C(F)(F)F)c2)cc1[C@@H]1CCN(c2cccnc2N)C1` [Example 42, (S)-3-(1-(2-aminopyridin-3-yl)pyrrolidin-3-yl)-4-methyl-N-(5-(trifluoromethyl)pyridin-3-yl)benzamide]: the Ki at DDR1 (setting [1]) and on DDR2 (setting [2]) was < 5 nM each time.

On to `O=C(Nc1cncc(C(F)(F)F)c1)c1ccc(C(F)F)c(C2CCN(c3cncnc3)C2)c1` (single isomer, unassigned) [Example 121], for which the inhibition constant Ki on DDR1 (setting [1]) and on DDR2 (setting [2]) was < 5 nM in each case.

Consider `Cc1ccc(C(=O)Nc2cncc(C(F)(F)F)c2)cc1[C@@H]1CCN(c2cncc(C(=O)N[C@H]3C[C@@H](O)C3)c2)C1` [Example 39, N-((1s,3R)-3-hydroxycyclobutyl)-5-((S)-3-(2-methyl-5-((5-(trifluoromethyl)pyridin-3-yl)carbamoyl)phenyl)pyrrolidin-1-yl)nicotinamide], for which the inhibition constant Ki on DDR1 (setting [1]) and at DDR2 (setting [2]) was < 5 nM in each case.

For the compound `NC(=O)c1cc(N2CCC(c3cc(C(=O)Nc4cncc(C(F)(F)F)c4)ccc3OC(F)F)C2)ccn1` (single isomer, unassigned) [Example 119, 4-(3-(2-(difluoromethoxy)-5-((5-(trifluoromethyl)pyridin-3-yl)carbamoyl)phenyl)pyrrolidin-1-yl)picolinamide], the Ki is < 5 nM on DDR1 (setting [1]) and 5 to 25 nM at DDR2 (setting [2]).

Regarding `COCCNC(=O)c1cncc(N2CC[C@@H](c3cc(C(=O)Nc4cncc(C(F)(F)F)c4)ccc3C)C2)c1` [Example 24, (S)-N-(2-methoxyethyl)-5-(3-(2-methyl-5-((5-(trifluoromethyl)pyridin-3-yl)carbamoyl)phenyl)pyrrolidin-1-yl)nicotinamide], the Ki on DDR1 (setting [1]) and at DDR2 (setting [2]) was < 5 nM each time.

For `Cc1ccc(C(=O)c2cncc(C(F)(F)F)c2)cc1[C@@H]1CCN(c2cnc3ccc(CO)cn23)C1` [Example 123, (S)-(3-(1-(6-(hydroxymethyl)imidazo[1,2-a]pyridin-3-yl)pyrrolidin-3-yl)-4-methylphenyl)(5-(trifluoromethyl)pyridin-3-yl)methanone], the Ki at DDR1 (setting [1]) and at DDR2 (setting [2]) was < 5 nM in each case.

As for `Cc1ccc(C(=O)Nc2cncc(C(F)(F)F)c2)cc1[C@@H]1CCN(c2cnn(C)c2)C1` [Example 88, (S)-4-methyl-3-(1-(1-methyl-1H-pyrazol-4-yl)pyrrolidin-3-yl)-N-(5-(trifluoromethyl)pyridin-3-yl)benzamide], the inhibitory constant (Ki) on DDR1 (setting [1]) and at DDR2 (setting [2]) was 5 to 25 nM each time.

`Cc1ccc(C(=O)Nc2cncc(C(F)(F)F)c2)cc1[C@@H]1CCN(c2cncc(C(=O)NCCO)c2)C1` [Example 30, (S)-N-(2-hydroxyethyl)-5-(3-(2-methyl-5-((5-(trifluoromethyl)pyridin-3-yl)carbamoyl)phenyl)pyrrolidin-1-yl)nicotinamide]: the inhibitory constant (Ki) at DDR1 (setting [1]) was < 5 nM; at DDR2 (setting [2]), 5 to 25 nM.

Consider `Cc1ccc(C(=O)Nc2cncc(C(F)(F)F)c2)cc1[C@@H]1CCN(c2ccnc(C(N)=O)c2)C1` [Example 63, (S)-4-(3-(2-methyl-5-((5-(trifluoromethyl)pyridin-3-yl)carbamoyl)phenyl)pyrrolidin-1-yl)picolinamide], for which the inhibition constant (Ki) on DDR1 (setting [1]) and at DDR2 (setting [2]) was < 5 nM throughout.

Take `CCc1cc(NC(=O)c2ccc(C)c([C@@H]3CCN(c4cncnc4)C3)c2)no1` [Example 69, (S)-N-(5-ethylisoxazol-3-yl)-4-methyl-3-(1-(pyrimidin-5-yl)pyrrolidin-3-yl)benzamide]: the inhibitory constant (Ki) at DDR1 (setting [1]) is < 5 nM; at DDR2 (setting [2]), 5 to 25 nM.

Consider `CC(=O)Nc1cncc(OC2CN(c3cc(C(=O)Nc4cncc(C(F)(F)F)c4)ccc3C)C2)c1` [Example 133, 3-(3-((5-acetamidopyridin-3-yl)oxy)azetidin-1-yl)-4-methyl-N-(5-(trifluoromethyl)pyridin-3-yl)benzamide], for which the Ki at DDR1 (setting [1]) and at DDR2 (setting [2]) was < 5 nM each time.

For `Cc1ccc(C(=O)Nc2cncc(C(F)(F)F)c2)cc1[C@@H]1CCN(c2cnc3ccc(N4CCN(C)CC4)cn23)C1` [Example 72, (S)-4-methyl-3-(1-(6-(4-methylpiperazin-1-yl)imidazo[1,2-a]pyridin-3-yl)pyrrolidin-3-yl)-N-(5-(trifluoromethyl)pyridin-3-yl)benzamide], the inhibitory constant (Ki) was < 5 nM on DDR1 (setting [1]) and 5 to 25 nM at DDR2 (setting [2]).

In the case of `Cc1ccc(C(=O)Nc2cc(OC(F)(F)F)ccn2)cc1[C@@H]1CCN(c2ccnc(C(N)=O)c2)C1` [Example 57, (S)-4-(3-(2-methyl-5-((4-(trifluoromethoxy)pyridin-2-yl)carbamoyl)phenyl)pyrrolidin-1-yl)picolinamide], the figures for the inhibition constant Ki on DDR1 (setting [1]) and at DDR2 (setting [2]) were < 5 nM and 5 to 25 nM, respectively.

As for `Cc1ccc(C(=O)Nc2cc(OC(F)F)ccn2)cc1[C@@H]1CCN(c2cncc(C#N)n2)C1` [Example 94, (S)-3-(1-(6-cyanopyrazin-2-yl)pyrrolidin-3-yl)-N-(4-(difluoromethoxy)pyridin-2-yl)-4-methyl-benzamide], the values for the Ki at DDR1 (setting [1]) and at DDR2 (setting [2]) were < 5 nM and 5 to 25 nM, respectively.

For the compound `Cc1ccc(C(=O)Nc2cncc(C(F)(F)F)c2)cc1[C@@H]1CCN(c2cccc(C(N)=O)c2)C1` [Example 66, (S)-3-(1-(3-carbamoylphenyl)pyrrolidin-3-yl)-4-methyl-N-(5-(trifluoromethyl)pyridin-3-yl)benzamide], the values for the Ki on DDR1 (setting [1]) and on DDR2 (setting [2]) were 5 to 25 nM and 25 to 100 nM, respectively.

On to `Cc1ccc(C(=O)Nc2cncc(C(F)(F)F)c2)cc1[C@@H]1CCN(Cc2cnc3ccccn23)C1` [Example C1, (S)-3-(1-(imidazo[1,2-a]pyridin-3-ylmethyl)pyrrolidin-3-yl)-4-methyl-N-(5 (trifluoromethyl)pyridin-3-yl)benzamide], for which the Ki was 148 nM at DDR1 (setting [3]) and 588 nM on DDR2 (setting [4]).
